Where two headings read alike, the source gives them in different places. A value given as a limit tells only on which side of the number the result lay.

For three compounds, IC50 results are on record in patent publication US20240246918A1, “COMPOUNDS AND COMPOSITIONS AS EIF4E INHIBITORS AND THE USES THEREOF” (Ribometrix, Inc., priority 2022, published 2024).

The test system of test [1] is COLO 205 colorectal tumor cells. Kind of test: Tumor cell viability inhibition assay (CellTiter-Glo 2.0, 72 hours). As to conditions: COLO 205 cell viability. Type of test: cell-based. The method in brief: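 IC50 derived by 4-parameter fitting after normalizing luminescence to DMSO and max-inhibition wells. Compounds tested as 11 concentrations in 4-fold steps on COLO 205 cells seeded at 1500 per well in RPMI-1640/10% FBS; ATP content measured with CellTiter-Glo 2.0 after 72 h.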
On the technique in general: Cellular ATP, detected with luciferase, serves as a proxy for viable cell number.

Test [2] concerns cyclin D1 protein levels in COLO 205 cells. Kind of test: Cyclin D1 cellular inhibition assay (HTRF, 6 hours). Type of test: cell-based. As to conditions: 6 hours of compound treatment, Cyclin D1 protein levels by HTRF, read-out: COLO 205 6 h Cyclin D1 TR-FRET IC50. In outline: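 COLO 205 cells in RPMI-1640 with 10% FBS treated 6 h with 11-point compound dilutions at 1% DMSO final. Lysates assayed for cyclin D1 by HTRF. Signal normalized to DMSO and maximum-inhibition controls, with IC50 from 4-parameter fit.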
A general note: In TR-FRET formats the signal depends on donor and acceptor labels being close together.

For test [3], the target named is T1, human eIF4E protein (Homo sapiens, UniProt P06730).
T1 construct: purchased Novus NBP-45314
In words: Biochemical competitive binding assay (TR-FRET competition, EDA-m7GDP-ATTO-647N probe). As to conditions: read-out: hEIF4E TR-FRET IC50. The method in brief: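 IC50 values come from 4-parameter fits of the normalized 665/620 nm TR-FRET ratio. Compound was first incubated 15 min with 4 nM recombinant His-eIF4E bound to 2.5 nM Eu-anti-His antibody, then 15 min with 5 nM m7GDP-ATTO-647N tracer, in pH 7.5 HEPES buffer with 100 mM KCl, Tween-20 and BSA.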

Test [4] has as its system cap-dependent translation in Flp-In-293 reporter cells. In words: Cellular cap-dependent translation inhibition assay (dual luciferase assay, DLA; Fluc/Rluc ratio, 24 hours). Type of test: cell-based. As to conditions: dual luciferase assay, Flp-In-293 reporter cells, 24 hours, Fluc/Rluc ratio, read-out: DLA 205 IC50.

T1 sequence (P06730 whole entry): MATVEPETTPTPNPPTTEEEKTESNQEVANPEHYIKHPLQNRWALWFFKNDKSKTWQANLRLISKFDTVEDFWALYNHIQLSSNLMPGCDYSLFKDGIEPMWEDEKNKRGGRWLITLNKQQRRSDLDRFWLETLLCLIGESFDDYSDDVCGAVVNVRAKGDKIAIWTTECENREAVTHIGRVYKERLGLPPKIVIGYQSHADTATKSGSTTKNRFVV

In general, IC50 refers to the midpoint of a concentration-inhibition curve. As for `Cc1cc(-c2cc(Cl)ccc2OCCn2c(C)nc3c(c2=O)CC(N(C)C)CC3)c2scc(C(=O)O)c2n1` (stereo not drawn) [Compound 3, 7-[5-chloranyl-2-[2-[6-[di(methyl)amino]-2-methyl-4-oxidanylidene-5,6,7,8-tetrahydroquinazolin-3-yl]ethoxy]phenyl]-5-methyl-thieno[3,2-b]pyridine-3-carboxylic acid; 2,2,2-tris(fluorenyl)acetic acid], the IC50 was less than 5 µM in test [1] (Homo sapiens, COLO 205, 72 h); less than 5 µM in test [2] (Homo sapiens, COLO 205, 6 h); less than 100 nM in test [3]; less than 1000 nM in test [4] (Homo sapiens, Flp-In-293, 24 h).
`Cc1sc2c(-c3cc(Cl)ccc3OCCn3c(C)nc4c(c3=O)CC(N(C)C3CC3)CC4)cn(C)c(=O)c2c1C(=O)O` (single isomer, unassigned) [Compound 244]: the IC50 in test [1] (Homo sapiens, COLO 205, 72 h) was more than 20 µM; in test [2] (Homo sapiens, COLO 205, 6 h), more than 20 µM; in test [3] it was 100 to 500 nM; in test [4] (Homo sapiens, Flp-In-293, 24 h), more than 5000 nM.
`Cc1cc(-c2cc(Cl)ccc2OCCn2c(C)nc3c(c2=O)CC(N(C)C2(C4CCC4)CC2)CC3)c2scc(C(=O)O)c2n1` (single isomer, unassigned) [Compound 243]: the IC50 in test [1] is 5 to 20 µM; in test [2], 5 to 20 µM; in test [3], less than 100 nM; in test [4], 1000 to 5000 nM.
